Measured values taken from ChEMBL document CHEMBL1287670, “Discovery and synthesis of 6,7,8,9-tetrahydro-5H-pyrimido-[4,5-d]azepines as novel TRPV1 antagonists” (Bioorg Med Chem Lett, 2010).
pIC50, pKi: −log10 of the molar value. Converted amounts (≈) assume the structure as drawn. Values belong to the molecule of their own block, whether it stands above or below them. The source made the active and inactive calls. The calls are words filed in the database; no cut-off is given here.

Experiments:
[1] = Aqueous equilibrium solubility of the compound in fasted-state simulated intestinal fluid at pH 6.8 by HPLC; assay type: physicochemical
[2] = biological target: T1, Transient receptor potential cation channel subfamily V member 1 (Homo sapiens, UniProt Q8NER1); experiment: Antagonist activity at human recombinant TRPV1 assessed as inhibition of capsaicin-induced in intracellular calcium levels by cell-based FLIPR assay; assay type: functional
[3] = biological target: Transient receptor potential cation channel subfamily V member 1 (Rattus norvegicus, UniProt O35433); experiment: Binding affinity to rat TRPV1
[4] = biological target: T1, Transient receptor potential cation channel subfamily V member 1; experiment: Binding affinity to human recombinant TRPV1
Rattus norvegicus = experiment: Antihyperalgesic activity against carrageenan-induced thermal hyperalgesia in rat assessed as paw withdrawal latency at 30 mg/kg, po administered 1 hr before carrageenan challenge; assay type: functional, organism-based; design: dose 30 mg/kg
[5] = Half life in fasted Sprague-Dawley rat at 1 mg/kg, iv or 5 mg/kg, po; assay type: ADME, organism-based; details: in vivo
[6] = Cmax in fasted Sprague-Dawley rat at 1 mg/kg, iv or 5 mg/kg, po; assay type: ADME, organism-based; details: in vivo
[7] = Aqueous equilibrium solubility of the compound at pH 2 by HPLC; assay type: physicochemical; details: aqueous medium
[8] = Bioavailability in fasted Sprague-Dawley rat at 1 mg/kg, iv or 5 mg/kg, po; assay type: ADME, organism-based; details: in vivo
[9] = AUC (infinity) in fasted Sprague-Dawley rat at 5 mg/kg, po; assay type: ADME, organism-based; design: time infinity, dose 5 mg/kg, route oral; details: plasma
[10] = Volume of distribution at steady state in fasted Sprague-Dawley rat at 1 mg/kg, iv or 5 mg/kg, po; assay type: ADME, organism-based; details: in vivo, read-out: Vdss
[11] = Clearance in fasted Sprague-Dawley rat at 1 mg/kg, iv or 5 mg/kg, po; assay type: ADME, organism-based; details: in vivo
[12] = AUC (infinity) in fasted Sprague-Dawley rat at 1 mg/kg, iv; assay type: ADME, organism-based; design: time infinity, dose 1 mg/kg, route intravenous; details: plasma

T1 sequence (Q8NER1 whole entry): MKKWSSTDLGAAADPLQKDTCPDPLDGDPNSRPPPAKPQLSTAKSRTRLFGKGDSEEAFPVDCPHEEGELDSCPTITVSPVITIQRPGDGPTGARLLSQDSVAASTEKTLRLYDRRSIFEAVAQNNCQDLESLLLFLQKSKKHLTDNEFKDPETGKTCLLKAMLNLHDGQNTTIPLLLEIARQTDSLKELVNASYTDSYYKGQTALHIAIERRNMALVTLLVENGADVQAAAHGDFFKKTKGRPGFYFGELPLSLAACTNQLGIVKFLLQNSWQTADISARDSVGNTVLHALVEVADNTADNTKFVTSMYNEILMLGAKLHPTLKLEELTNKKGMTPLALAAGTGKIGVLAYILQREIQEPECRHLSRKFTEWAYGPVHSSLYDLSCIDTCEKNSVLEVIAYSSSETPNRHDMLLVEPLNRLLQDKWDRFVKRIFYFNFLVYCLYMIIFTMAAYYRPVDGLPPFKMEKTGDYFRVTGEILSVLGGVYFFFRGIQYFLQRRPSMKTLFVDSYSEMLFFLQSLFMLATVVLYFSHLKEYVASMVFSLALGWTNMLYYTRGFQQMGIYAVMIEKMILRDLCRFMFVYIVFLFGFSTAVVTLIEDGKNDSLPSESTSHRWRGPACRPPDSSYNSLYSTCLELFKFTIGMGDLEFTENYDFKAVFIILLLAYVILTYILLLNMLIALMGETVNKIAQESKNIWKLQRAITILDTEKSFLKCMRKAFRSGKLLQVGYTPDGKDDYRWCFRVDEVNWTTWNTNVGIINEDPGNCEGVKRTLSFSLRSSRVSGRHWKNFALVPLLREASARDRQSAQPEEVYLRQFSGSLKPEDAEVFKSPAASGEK
Sequence of Transient receptor potential cation channel subfamily V member 1 (Rattus norvegicus, UniProt O35433) (O35433 whole entry): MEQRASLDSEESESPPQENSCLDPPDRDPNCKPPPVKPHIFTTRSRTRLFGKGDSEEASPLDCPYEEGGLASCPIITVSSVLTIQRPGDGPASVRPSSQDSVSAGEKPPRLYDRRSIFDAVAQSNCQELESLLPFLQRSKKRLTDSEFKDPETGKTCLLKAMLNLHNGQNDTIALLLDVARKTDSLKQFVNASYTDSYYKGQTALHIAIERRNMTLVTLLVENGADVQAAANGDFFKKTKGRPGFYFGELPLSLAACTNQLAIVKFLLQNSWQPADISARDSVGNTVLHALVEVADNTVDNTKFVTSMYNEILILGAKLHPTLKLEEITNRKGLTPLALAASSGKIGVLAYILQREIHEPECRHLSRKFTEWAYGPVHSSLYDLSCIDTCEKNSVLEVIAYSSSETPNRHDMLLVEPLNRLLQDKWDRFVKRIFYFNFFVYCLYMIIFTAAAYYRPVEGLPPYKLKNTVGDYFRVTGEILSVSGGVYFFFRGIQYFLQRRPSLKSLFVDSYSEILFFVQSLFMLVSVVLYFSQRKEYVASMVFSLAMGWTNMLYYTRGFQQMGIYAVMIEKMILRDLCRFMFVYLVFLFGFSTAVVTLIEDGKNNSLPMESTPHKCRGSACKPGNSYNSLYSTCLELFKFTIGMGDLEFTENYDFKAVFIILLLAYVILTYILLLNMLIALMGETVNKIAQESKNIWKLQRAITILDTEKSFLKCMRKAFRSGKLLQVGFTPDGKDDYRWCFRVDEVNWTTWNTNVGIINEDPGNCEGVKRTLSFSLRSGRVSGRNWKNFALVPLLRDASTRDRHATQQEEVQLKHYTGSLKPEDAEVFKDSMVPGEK

SMILES: CC(C)(C)c1ccc(Nc2ncnc3c2CCCN(c2ncccc2C(F)(F)F)C3)cc1
pIC50 [2]: 5.69

SMILES: C=C(C)C12C[C@@H](C)[C@@]34O[C@](Cc5ccccc5)(O[C@@H]1[C@@H]3C=C(COC(=O)Cc1ccc(O)c(OC)c1)C[C@]1(O)C(=O)C(C)=C[C@@H]41)O2 (single isomer, unassigned) [RESINIFERATOXIN]
pIC50 [3]: 6.74
pKi [4]: 7.85

SMILES: CC(C)(C)c1ccc(Nc2ncnc3c2CN(c2ncccc2C(F)(F)F)CC3)cc1
pIC50 [2]: < 5.00

SMILES: CC(C)(C)c1ccccc1Nc1ncnc2c1CCN(c1ncccc1C(F)(F)F)C2
pIC50 [2]: < 4.70

SMILES: FC(F)(F)c1ccc(Nc2nc(N3CCOCC3)nc3c2CCN(c2ncccc2C(F)(F)F)CC3)cc1
Activity (Rattus norvegicus): Active
solubility thermodynamic [1]: 0.5 µg/mL (≈ 0.929 µM)
half-life [5]: 66 min
Cmax [6]: 160 nM
solubility thermodynamic [7]: 5 µg/mL (≈ 9.29 µM)
bioavailability [8]: 14%
AUC(0-inf) [9]: 236 ng·h/mL
Vd [10]: 4.7 L/kg
clearance [11]: 51.7 mL/min/kg
AUC(0-inf) [12]: 322 ng·h/mL

SMILES: COc1nc(Nc2nc(C(C)C)nc3c2CCN(c2ncccc2C(F)(F)F)CC3)ccc1C(F)(F)F
pIC50 [2]: 5.61

More lines, now with the values ahead:

solubility thermodynamic [1]: 218 µg/mL (≈ 399 µM)
pIC50 [2]: 6.34
SMILES: O=C(O)c1cnc(N2CCc3nc(N4CCCCC4)nc(Nc4ccc(C(F)(F)F)cc4)c3CC2)c(Cl)c1

pIC50 [2]: 5.84
SMILES: FC(F)(F)c1cccc(Nc2ncnc3c2CCN(c2ncccc2C(F)(F)F)C3)c1

pIC50 [2]: 6.28
SMILES: CC(C)(C)c1cccc(Nc2ncnc3c2CCN(c2ncccc2C(F)(F)F)C3)c1

pIC50 [2]: 8.05
SMILES: CC(C)(C)c1ccc(Nc2ncnc3c2CCN(c2ncccc2C(F)(F)F)C3)cc1

pIC50 [2]: 7.74
SMILES: CC(C)c1nc2c(c(Nc3ccc(C(C)(C)C)cc3)n1)CCN(c1ncccc1C(F)(F)F)C2

pIC50 [2]: 6.75
SMILES: COC(=O)c1cnc(N2CCc3nc(N4CCOCC4)nc(Nc4ccc(C(F)(F)F)cc4)c3CC2)c(Cl)c1

pIC50 [2]: 7.10
SMILES: Cc1nc2c(c(Nc3ccc(C(C)(C)C)cc3)n1)CCN(c1ncccc1C(F)(F)F)C2
